In US9598386B2, “Immunomodulatory compounds” (University of Strathclyde, priority 2012, dated 2017):
Counter-ions that a name gives are not always drawn.

Assays:
[1] = tested on: DBA/1 mice undergoing CIA; assay: Collagen-induced arthritis (CIA) mouse model of rheumatoid arthritis; type: in vivo; details: prophylactic treatment, 1 μg/dose at d-2, d0 and d21, versus PBS; FIG. 1
Description: DBA/1 mice undergoing CIA (PBS) were treated with SMAs S3 (1 μg/dose; S3-1) and S5 (1 μg/dose; S5-1) at d-2, d0 and d21 and monitored every second day for (A) articular score; (B) paw swelling; (C) incidence of CIA (articular score>2) and (D) incidence of severe pathology (articular score >4). Data in A & B are presented as mean values±SEM where PBS, n=28, S3, n=14 and S5, n=13 individual mice, except at d33 and d35 where PBS, n=14, S3, n=7 and S5, n=7 individual mice, and analysis was by Mann-Whitney test and *p<0.05, **p<0.01 and ***p<0.001 where blue * and black * represent PBS versus S3-1 and S5-1, respectively.

[2] = tested on: Peritoneal-derived mast cells (PDMC); assay: Mast cell degranulation after FcεRI crosslinking; type: cell-based; details: pre-treated during IgE sensitisation, measured 1 h after FcεRI crosslinking; FIG. 2
Description: (§1) Peritoneal-derived mast cells (PDMC; panels A & D) or bone marrow-derived mast cells (BMM; B, C, E & F) were pre-treated with the indicated concentrations of S3 and S5 (μg/ml) during the IgE sensitisation phase and then degranulation measured 1 h (A & D) following crosslinking of the IgE-bound FcεRI receptors (XL) or not (Basal). Alternatively TNFα (B & E) or IL-6 (C & F) release was measured 24 h following FcεRI crosslinking. Data are presented as means±SD where n=3 and analysis is by 1-way ANOVA and Newman-Keuls post test where ***p<0.001.
(§2) S3 and S5 were also tested for their effects on another immune system cell type, the mast cell. Similar to macrophages, activation of mast cells for example via the high-affinity receptor for IgE results in degranulation, resulting in release of inflammatory mediators, and secretion of various cytokines.

[3] = tested on: bone marrow-derived mast cells (BMM); assay: Mast cell cytokine release after FcεRI crosslinking; type: cell-based; details: pre-treated during IgE sensitisation, 24 h after FcεRI crosslinking; FIG. 2
Description: as §1, §2

[4] = tested on: mouse model of asthma, ovalbumin-induced airway hypersensitivity; assay: Ovalbumin-induced airway hypersensitivity (OAH) mouse model of asthma; type: in vivo; details: for lung pathology (H & E staining of lung tissue) / eosinophil influx into the lungs (BALF): prophylactic treatment; for lung pathology (H & E staining of lung tissue): FIG. 3A; for eosinophil influx into the lungs (BALF): FIG. 3B; for neutrophil influx into the lungs (BALF): therapeutic treatment, FIG. 3C
Description: As a consequence of the mast cell findings S3 and […] were tested in a mouse model of asthma, ovalbumin-induced airway hypersensitivity (OAH). As can be shown in FIG. 3, both sulfones are able to inhibit infiltration of disease-causing eosinophils into the lungs and also overall lung pathology.

Row | melting point [°C] | Compound | other results
1 | 187 to 188 | C[N+](C)(C)CCS(=O)(=O)Cc1ccc(Br)cc1 (as salt: methane sulfonate) [S1, N,N.N-trimethyl-2-1(4-bromobenzyl)sulfonyl{ethanaminiummethane sulfonate] | 
2 | 58 to 60 | CN(C)CCS(=O)(=O)Cc1ccc(Br)cc1 [S3, N-{2-[(4-Bromobenzyl)sulfonyl]ethyl}-N,N-dimethylamine] | development of arthritis (articular score, paw swelling, incidence) [1]: significantly suppressed the development of arthritis; mast cell degranulation [2]: suppressing degranulation; secretion of IL-6 by mast cells [3]: inhibiting secretion; secretion of TNF-α by mast cells [3]: inhibiting secretion; lung pathology (H & E staining of lung tissue) [4]: inhibits lung pathology; eosinophil influx into the lungs (BALF) [4]: inhibits; neutrophil influx into the lungs (BALF) [4]: inhibits neutrophil influx
3 | 68 to 70 | Cc1ccc(CS(=O)(=O)CCN(C)C)cc1 [S4, N,N-Di methyl-2-[(4-methylbenzyl)sulfonyl]ethanamine] | 
4 | 212 to 214 | Cc1ccc(CS(=O)(=O)CC[N+](C)(C)C)cc1.[I-] [S5, N,N,N-trimethyl-2-[(4-methylbenzyl)sulfonyl]ethanaminium iodide] | development of arthritis (articular score, paw swelling, incidence) [1]: significantly suppressed the development of arthritis; mast cell degranulation [2]: suppressing degranulation; secretion of IL-6 by mast cells [3]: inhibiting secretion; secretion of TNF-α by mast cells [3]: inhibiting secretion; lung pathology (H & E staining of lung tissue) [4]: inhibits lung pathology; eosinophil influx into the lungs (BALF) [4]: inhibits; neutrophil influx into the lungs (BALF) [4]: inhibits neutrophil influx
5 | 84 to 86 | Cc1ccc(CS(=O)(=O)CCN2CCCC2)cc1 [S7, 1-(2-[(4-Methylbenzyl)sulfonyl]ethyl)pyrrolidine] | 
6 | 214 to 216 | Cc1ccc(CS(=O)(=O)CC[N+]2(C)CCCC2)cc1.[I-] [S8, 1-Methyl-1-{2-[(4-methylbenzyl)sulfonyl]ethyl}pyrrolidinium iodide] | 
7 | 90 to 92 | O=S(=O)(CCN1CCCC1)Cc1ccc(Br)cc1 [S9, 1-{2-[(4-bromobenzyl}sulfonyl]ethyl}pyrrolidine] | 
8 | 196 to 198 | C[N+]1(CCS(=O)(=O)Cc2ccc(Br)cc2)CCCC1.[I-] [S10, 1-Methyl-1-{2-[(4-bromobenzyl)sulfonyllethyl]}pyrrolidinium iodide] | 
9 | 92 to 93 | Cc1ccc(CS(=O)(=O)CCCN2CCOCC2)cc1 [S19, 4-{3-[(4-methylbenzyl)sulfonyl]propyl}morpholine] | 
10 | 84 to 86 | Cc1ccc(CS(=O)(=O)CCCN2CCCC2)cc1 [S20, 1-{3-[(4-Methylbenzyl)sulfonyl]propyl}-pyrrolidine] | 
11 | 181 to 183 | Cc1ccc(CS(=O)(=O)CCC[N+]2(C)CCOCC2)cc1.[I-] [S22, 4-methyl-4-{3-[(4-methylbenzyl)sulfonyl]propyl}morpholin-4-ium iodide] | 
12 | 74 to 76 | O=S(=O)(CCN1CCOCC1)Cc1cccc(F)c1 [S25, 4-{2-[(3-Fluorobenzyl)sulfonyl]ethyl}morpholine] | 
13 | 66 to 68 | O=S(=O)(CCN1CCCC1)Cc1cccc(F)c1 [S26, 1-{2-[(3-Fluorobenzyl)sulfonyl]ethyl}pyrrolidine] | 
14 | 50 to 52 | CN(C)CCS(=O)(=O)Cc1ccc(F)cc1 [S27, N-{2-[(4-Fluorobenzyl)sulfonyl]ethyl}-N,N-dimethylamine] | 
15 | 72 to 74 | O=S(=O)(CCN1CCOCC1)Cc1ccc(F)cc1 [S28, 4-{2-[(4-Fluorobenzyl)sulfonyl]ethyl}morpholine] | 
16 | 76 to 78 | O=S(=O)(CCN1CCCC1)Cc1ccc(F)cc1 [S29, 1-{2-[(4-Fluorobenzyl)sulfonyl]ethyl}pyrrolidine] | 
